These compounds were tested on cultured human mast cells (CHMC) (assay: CHMC low cell density IgE activation: tryptase assay). Conditions: low cell density; read-out: CHMC anti-IgE Tryptase.
Type: cell-based
Summary of the method: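 CHMC resuspended in pre-warmed MT buffer at 1000-1500 cells/well (donor-dependent) and preincubated 1 hr at 37° C, then stimulated with anti-IgE for 30 min at 37° C; unstimulated wells got MT alone. Supernatant tryptase activity read with tryptase substrate after 30 min at room temperature.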
For CC1(C)Oc2ccc(Nc3nc(Nc4ccc5c(cnn5CCCO)c4)ncc3F)cc2NC1=O [Compound R935432], the IC50 was 0.036 µM. In the case of CNC(=O)CCn1ncc2cc(Nc3ncc(F)c(Nc4ccc5c(c4)NC(=O)C(C)(C)O5)n3)ccc21 [Compound R935433], the IC50 is reported as 0.106 µM. In the case of Cc1cc(Nc2ncc(F)c(Nc3ccc4c(c3)NC(=O)C(C)(C)O4)n2)cc(Cl)c1O [Compound R940358], the IC50 is reported as 0.03 µM. O=C1Nc2cc(Nc3nc(Nc4ccc5cn[nH]c5c4)ncc3F)ccc2OC1(F)F [Compound R940364] was tested, and the IC50 was 0.046 µM. Work on CC1(C)Oc2ccc(Nc3ncc(F)c(Nc4ccc5c(c4)NC(=O)C(F)(F)O5)n3)cc2NC1=O [Compound R940367] yielded an IC50 of 0.117 µM. Compound Cn1ncc2ccc(Nc3ncc(F)c(Nc4ccc5c(c4)NC(=O)C(F)(F)O5)n3)cc21 [Compound R940368] has an IC50 of 0.025 µM. With CC1(C)Oc2ccc(Nc3nc(Nc4ccc(OC(F)(F)F)c(Cl)c4)ncc3F)nc2NC1=O [Compound R940390] the IC50 was > 10 µM. CNC(=O)COc1cccc(Nc2ncc(F)c(Nc3cc(C)c(O)c(Cl)c3)n2)c1 [Compound R945366] was tested, and the IC50 was 0.112 µM. CC(=O)N1CCN(c2ccc(Nc3ncc(F)c(NC4CC4)n3)cc2)CC1 [Compound R945370] gave an IC50 of 0.522 µM. Compound COC(=O)N1CCN(c2ccc(Nc3ncc(F)c(NC4CC4)n3)cc2)CC1 [Compound R945371] has an IC50 of 0.713 µM. With O=C1COc2ccc(Nc3nc(Nc4cccc(OCC(=O)NC5CCC5)c4)ncc3F)nc2N1 [Compound R945389] the IC50 was 0.0748 µM. With O=C1COc2ccc(Nc3nc(Nc4cccc(OCC(=O)NC5CC5)c4)ncc3F)nc2N1 [Compound R945390] the IC50 was 0.118 µM. CC(=O)N1CCN(c2ccc(Nc3ncc(F)c(Nc4ccc5c(n4)NC(=O)CO5)n3)cc2)CC1 [Compound R945391] was tested, and the IC50 was 0.094 µM. Work on COC(=O)N1CCN(c2ccc(Nc3ncc(F)c(Nc4ccc5c(n4)NC(=O)CO5)n3)cc2)CC1 [Compound R945392] yielded an IC50 of 0.085 µM. Work on COc1ccc(Nc2ncc(F)c(Nc3ccc4c(n3)NC(=O)CO4)n2)cc1Cl [Compound R945399] yielded an IC50 of 0.163 µM. CC(=O)N(C)c1ccc(Nc2ncc(F)c(Nc3ccc4c(n3)NC(=O)C(C)(C)O4)n2)cc1 [Compound R945417] showed an IC50 of 2.52 µM.

The compounds below were run against T1, Syk kinase (Homo sapiens, UniProt P43405) (assay: Syk kinase biochemical fluorescence polarization assay). Conditions: isolated Syk kinase, fluorescence polarization, 4 uM ATP.
T1 construct: purchased Upstate, Lake Placid NY
CC1(C)Oc2ccc(Nc3nc(Nc4ccc5c(cnn5CCCO)c4)ncc3F)cc2NC1=O [Compound R935432] was tested, and the IC50 was 0.05 µM. CNC(=O)CCn1ncc2cc(Nc3ncc(F)c(Nc4ccc5c(c4)NC(=O)C(C)(C)O5)n3)ccc21 [Compound R935433] gave an IC50 of 0.07 µM. Work on Cc1cc(Nc2ncc(F)c(Nc3ccc4c(c3)NC(=O)C(C)(C)O4)n2)cc(Cl)c1O [Compound R940358] yielded an IC50 of 0.023 µM. Compound O=C1Nc2cc(Nc3nc(Nc4ccc5cn[nH]c5c4)ncc3F)ccc2OC1(F)F [Compound R940364] has an IC50 of 0.001 µM. CC1(C)Oc2ccc(Nc3ncc(F)c(Nc4ccc5c(c4)NC(=O)C(F)(F)O5)n3)cc2NC1=O [Compound R940367] gave an IC50 of 0.013 µM. With Cn1ncc2ccc(Nc3ncc(F)c(Nc4ccc5c(c4)NC(=O)C(F)(F)O5)n3)cc21 [Compound R940368] the IC50 was 0.001 µM. CC1(C)Oc2ccc(Nc3nc(Nc4ccc(OC(F)(F)F)c(Cl)c4)ncc3F)nc2NC1=O [Compound R940390] was tested, and the IC50 was > 10 µM. With CNC(=O)COc1cccc(Nc2ncc(F)c(Nc3cc(C)c(O)c(Cl)c3)n2)c1 [Compound R945366] the IC50 was 0.059 µM. Work on CC(=O)N1CCN(c2ccc(Nc3ncc(F)c(NC4CC4)n3)cc2)CC1 [Compound R945370] yielded an IC50 of 1.05 µM. COC(=O)N1CCN(c2ccc(Nc3ncc(F)c(NC4CC4)n3)cc2)CC1 [Compound R945371] gave an IC50 of 1.3 µM. O=C1COc2ccc(Nc3nc(Nc4cccc(OCC(=O)NC5CCC5)c4)ncc3F)nc2N1 [Compound R945389] gave an IC50 of 0.035 µM. Compound O=C1COc2ccc(Nc3nc(Nc4cccc(OCC(=O)NC5CC5)c4)ncc3F)nc2N1 [Compound R945390] has an IC50 of 0.009 µM. With CC(=O)N1CCN(c2ccc(Nc3ncc(F)c(Nc4ccc5c(n4)NC(=O)CO5)n3)cc2)CC1 [Compound R945391] the IC50 was 0.01 µM. COC(=O)N1CCN(c2ccc(Nc3ncc(F)c(Nc4ccc5c(n4)NC(=O)CO5)n3)cc2)CC1 [Compound R945392] gave an IC50 of 0.014 µM. Compound COc1ccc(Nc2ncc(F)c(Nc3ccc4c(n3)NC(=O)CO4)n2)cc1Cl [Compound R945399] has an IC50 of 0.166 µM. For CC(=O)N(C)c1ccc(Nc2ncc(F)c(Nc3ccc4c(n3)NC(=O)C(C)(C)O4)n2)cc1 [Compound R945417], the IC50 was > 10 µM.

Each compound was assayed on Human Jurkat T-cells (clone N) (assay: Jurkat T-cell activation (anti-TCR, CD69 upregulation)). Conditions: not given.
Type: cell-based
Summary of the method: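 Jurkat cells in RPMI + 5% FBS preincubated with compound 1 h at 37 °C, then stimulated with anti-TCR C305 at 500 ng/ml for 20 h. CD69 surface expression stained with anti-CD69-APC and read by flow cytometry; IC50 versus solvent-only control.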
With Cc1cc(Nc2ncc(F)c(Nc3ccc4c(c3)NC(=O)C(C)(C)O4)n2)cc(Cl)c1O [Compound R940358] the IC50 was 0.159 µM.

What follows are compounds tested on cultured human mast cells (CHMC) (assay: CHMC low cell density ionomycin activation: tryptase assay). Conditions: low cell density; read-out: CHMC Ionomycin Tryptase.
Type: cell-based
With CC1(C)Oc2ccc(Nc3nc(Nc4ccc5c(cnn5CCCO)c4)ncc3F)cc2NC1=O [Compound R935432] the IC50 was 8.5 µM. Work on CNC(=O)CCn1ncc2cc(Nc3ncc(F)c(Nc4ccc5c(c4)NC(=O)C(C)(C)O5)n3)ccc21 [Compound R935433] yielded an IC50 of 16.2 µM. With Cc1cc(Nc2ncc(F)c(Nc3ccc4c(c3)NC(=O)C(C)(C)O4)n2)cc(Cl)c1O [Compound R940358] the IC50 was 4.3 µM. O=C1Nc2cc(Nc3nc(Nc4ccc5cn[nH]c5c4)ncc3F)ccc2OC1(F)F [Compound R940364] was tested, and the IC50 was > 10 µM. CC1(C)Oc2ccc(Nc3ncc(F)c(Nc4ccc5c(c4)NC(=O)C(F)(F)O5)n3)cc2NC1=O [Compound R940367] gave an IC50 of 14.1 µM. Cn1ncc2ccc(Nc3ncc(F)c(Nc4ccc5c(c4)NC(=O)C(F)(F)O5)n3)cc21 [Compound R940368] showed an IC50 of 1.58 µM. With CC1(C)Oc2ccc(Nc3nc(Nc4ccc(OC(F)(F)F)c(Cl)c4)ncc3F)nc2NC1=O [Compound R940390] the IC50 was > 10 µM. CNC(=O)COc1cccc(Nc2ncc(F)c(Nc3cc(C)c(O)c(Cl)c3)n2)c1 [Compound R945366] was tested, and the IC50 was > 10 µM. CC(=O)N1CCN(c2ccc(Nc3ncc(F)c(NC4CC4)n3)cc2)CC1 [Compound R945370] was tested, and the IC50 was > 10 µM. With COC(=O)N1CCN(c2ccc(Nc3ncc(F)c(NC4CC4)n3)cc2)CC1 [Compound R945371] the IC50 was > 10 µM. O=C1COc2ccc(Nc3nc(Nc4cccc(OCC(=O)NC5CCC5)c4)ncc3F)nc2N1 [Compound R945389] was tested, and the IC50 was > 10 µM. With O=C1COc2ccc(Nc3nc(Nc4cccc(OCC(=O)NC5CC5)c4)ncc3F)nc2N1 [Compound R945390] the IC50 was > 10 µM. CC(=O)N1CCN(c2ccc(Nc3ncc(F)c(Nc4ccc5c(n4)NC(=O)CO5)n3)cc2)CC1 [Compound R945391] was tested, and the IC50 was > 10 µM. In the case of COC(=O)N1CCN(c2ccc(Nc3ncc(F)c(Nc4ccc5c(n4)NC(=O)CO5)n3)cc2)CC1 [Compound R945392], the IC50 is reported as > 10 µM. COc1ccc(Nc2ncc(F)c(Nc3ccc4c(n3)NC(=O)CO4)n2)cc1Cl [Compound R945399] was tested, and the IC50 was > 10 µM. In the case of CC(=O)N(C)c1ccc(Nc2ncc(F)c(Nc3ccc4c(n3)NC(=O)C(C)(C)O4)n2)cc1 [Compound R945417], the IC50 is reported as > 10 µM.

Source: patent US8158621B2, “Methods of treating or preventing autoimmune diseases with 2,4-pyrimidinediamine compounds” (Rigel Pharmaceuticals, Inc., priority 2002, dated 2012)
